What was measured:
Test in all cases: relative viability (nuclei count vs DMSO), 5 days (fraction); higher = more cells survive
[1] = compound: CC1=C(C=CC(=C1)[N+](=O)[O-])NS(=O)(=O)C2=C(C=CC(=C2)Cl)Cl [FH535] + O=C(c1cc(Cc2n[nH]c(=O)c3ccccc23)ccc1F)N1CCN(C(=O)C2CC2)CC1 [Olaparib] (partner 8 µM)
In short: (§1)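 Values are medians from duplicate plates. Each reflects relative viability, defined as the nuclei count of treated wells over that of vehicle wells. Lung cancer cell lines in 1536-well plates were pin-tool dosed one day after seeding with one drug alone or with a fixed anchor-drug dose plus five library-drug doses (not always all listed) in √10 steps, then fixed, stained and imaged at 4× after 5 days.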

[2] = compound: CC1=C(C=CC(=C1)[N+](=O)[O-])NS(=O)(=O)C2=C(C=CC(=C2)Cl)Cl [FH535] + CS(=O)(=O)CCNCc1ccc(-c2ccc3ncnc(Nc4ccc(OCc5cccc(F)c5)c(Cl)c4)c3c2)o1 [Lapatinib] (partner 2 µM)
In short: as §1

[3] = compound: CC1=C(C=CC(=C1)[N+](=O)[O-])NS(=O)(=O)C2=C(C=CC(=C2)Cl)Cl [FH535] + N=C(N)NC(=N)NCCc1ccccc1 [Phenformin] (partner 250 µM)
In short: as §1

[4] = compound: CC1=C(C=CC(=C1)[N+](=O)[O-])NS(=O)(=O)C2=C(C=CC(=C2)Cl)Cl [FH535] + Nc1nc2[nH]cc(CCc3ccc(C(=O)N[C@@H](CCC(=O)O)C(=O)O)cc3)c2c(=O)[nH]1 [Pemetrexed] (partner 0.2 µM)
In short: as §1

[5] = compound: CC1=C(C=CC(=C1)[N+](=O)[O-])NS(=O)(=O)C2=C(C=CC(=C2)Cl)Cl [FH535] + CC(=O)c1c(C)c2cnc(Nc3ccc(N4CCNCC4)cn3)nc2n(C2CCCC2)c1=O [Palbociclib] (partner 0.5 µM)
In short: as §1

Cell Line	relative viability ([1]; first compound 0.04 µM)	relative viability ([1]; first compound 0.1265 µM)	relative viability ([1]; first compound 0.4 µM)	relative viability ([1]; first compound 1.265 µM)	relative viability ([2]; first compound 0.04 µM)	relative viability ([2]; first compound 0.1265 µM)	relative viability ([2]; first compound 0.4 µM)	relative viability ([2]; first compound 1.265 µM)	relative viability ([3]; first compound 0.04 µM)	relative viability ([3]; first compound 0.1265 µM)	relative viability ([3]; first compound 0.4 µM)	relative viability ([3]; first compound 1.265 µM)	relative viability ([4]; first compound 0.04 µM)	relative viability ([4]; first compound 0.1265 µM)	relative viability ([4]; first compound 0.4 µM)	relative viability ([4]; first compound 1.265 µM)	relative viability ([5]; first compound 0.04 µM)	relative viability ([5]; first compound 0.1265 µM)	relative viability ([5]; first compound 0.4 µM)	relative viability ([5]; first compound 1.265 µM)
201T	0.812	0.856	0.827	0.59	1.01	0.897	0.971	0.978	0.402	0.45	0.397	0.321	0.344	0.336	0.356	0.275	0.374	0.344	0.332	0.301
A549	0.28	0.306	0.284	0.299	0.979	0.947	0.864	0.578	0.175	0.159	0.116	0.043								
A-427	0.799	0.774	0.731	0.513	0.995	1.03	0.962	0.99	0.272	0.331	0.215	0.135	0.979	0.973	0.953	0.785	0.532	0.575	0.546	0.474
ABC-1	0.705	0.896	0.94	0.37	1.21	1.08	1.36	0.983	0.263	0.209	0.184	0.179					0.715	0.641	0.458	0.583
BEN	1.02	1.1	0.831	0.636	0.678	0.674	0.604	0.398	0.231	0.25	0.263	0.221	0.708	0.755	0.638	0.613	0.477	0.455	0.489	0.431
CAL-12T	0.693	0.813	0.612	0.411	0.612	0.633	0.726	0.476	0.515	0.514	0.403	0.316	1.24	1.38	1.04	0.877	0.344	0.442	0.393	0.25
COR-L23	0.375	0.35	0.309	0.244	0.953	0.958	0.901	0.549	0.423	0.486	0.342	0.217	0.188	0.192	0.2	0.205	0.3	0.327	0.263	0.256
COR-L 105	0.693	0.699	0.747	0.648	0.274	0.345	0.372	0.398	0.411	0.461	0.405	0.382	1.16	1.08	0.943	0.968	0.335	0.386	0.43	0.359
ChaGo-K-1	0.384	0.404	0.403	0.286					0.462	0.554	0.428	0.384	0.259	0.237	0.273	0.255	0.893	0.946	0.888	0.531
EKVX	0.737	0.906	0.903	0.762	0.179	0.221	0.227	0.187	0.238	0.223	0.173	0.153	0.366	0.47	0.413	0.379	0.422	0.396	0.333	0.292
EMC-BAC-2	0.445	0.467	0.46	0.442	0.788	0.926	0.894	0.813	0.416	0.554	0.46	0.359	0.408	0.422	0.419	0.423	0.546	0.507	0.526	0.512
EPLC-272H	0.766	0.92	0.849	0.636	0.677	1.1	0.827	0.831	0.242	0.352	0.234	0.159	0.301	0.366	0.353	0.308	0.363	0.336	0.337	0.299
H3255	0.515	0.527	0.514	0.381	0.214	0.252	0.266	0.199	0.31	0.423	0.374	0.32	0.58	0.564	0.545	0.577	0.302	0.307	0.346	0.307
HARA	0.588	0.873	0.829	0.353	0.743	0.802	0.8	0.73	0.398	0.368	0.269	0.205	0.258	0.254	0.234	0.286	0.233	0.278	0.277	0.241
HCC-15	0.702	0.706	0.688	0.519	0.825	0.679	0.733	0.534	0.432	0.443	0.343	0.213	0.256	0.216	0.229	0.212	0.651	0.781	0.639	0.523
HCC-44	0.976	0.929	0.969	0.768	1.06	1.03	0.977	0.773	0.242	0.191	0.125	0.176	0.647	0.687	0.604	0.628	1.02	0.889	0.914	0.79

— the supplement of paper PMC10307832
